Test results: publication PMC3527734, “Peripheral injections of melanin-concentrating hormone receptor 1 antagonist S38151 decrease food intake and body weight in rodent obesity models” (Frontiers in Endocrinology, 2012)
Where two headings read alike, the source gives them in different places. Where a SMILES comes first, the peptide text is derived from it.

Assay: stability in TRIS buffer pH 7.4
Format: physicochemical
Settings: pH 7.4, Tris buffer pH 7.4, 40 μM, LC-MS/MS, representative of three experiments, read-out: % S38151 remaining
Description: First, S38151 was incubated for 16 h at 4°C and 37°C in mouse plasma or in TRIS buffer (pH 7.4). Next, plasma proteins were precipitated with two volumes of acetonitrile. After centrifugation and dilution with a water/acetonitrile mixture (50/50 v/v), the supernatant was injected onto a triple quadripole mass spectrometer (Ultima, Micromass WATERS Corporation, Milford, USA). The liquid chromatographic system consisted of an Agilent 1100 analytic pump (Agilent, Santa Clara, USA) equipped with an Alpha Mos CTC autosampler (Alpha Mos, Toulouse, France). Mass detection was performed using the m/z transition 743.5 > 163, in positive electrospray. A second stability study was performed at a lower concentration (1 μM) and for 4 h, with the following sampling times: 0, 15, 45, 90, and 240 min. At each sampling time, 50 μL of plasma were precipitated with two volumes of acetonitrile, and after centrifugation were directly injected onto the LC-MS/MS system. The same treatment was used for the buffer samples.
Figure 2 Studies regarding the stability of S38151. A solution of S38151 (40 μM) was incubated with either Tris buffer, pH 7.4 (hatched bars), or mouse plasma samples (dark bars) for 16 h at 4°C or 37°C. The samples were analyzed using liquid chromatography coupled to mass spectrometry. Experiments were repeated three times. The chart presented is representative of the experimental results. […]

## CSCC[C@@H]1NC(=O)[C@@H](NC(=O)c2ccc(NC(=N)N)cc2)CSSC[C@@H](C(=O)N[C@@H](Cc2c[nH]c3ccccc23)C(=O)O)NC(=O)[C@@H]2CCCN2C(=O)[C@H](CCCNC(=N)N)NC(=O)[C@H](Cc2ccc(O)cc2)NC(=O)[C@H](C(C)C)NC(=O)[C@H](CCCNC(=N)N)NC(=O)[C@H](CC(C)C)NC1=O [S38151, p-guanidinobenzoyl-(Des-Gly10)-MCH (7–17)] (HELM PEPTIDE1{[N=C(N)Nc1ccc(C(=O)[*:2])cc1].C.M.L.R.V.Y.R.P.C.W}$PEPTIDE1,PEPTIDE1,2:R3-10:R3$$$V2.0; C-terminus assumed)
4°C
  remaining at 16 h, 40 μM: 79%
37°C
  remaining at 16 h, 40 μM: 32%
